Measured values as given in the supplement of paper PMC10307832.

Key:
Assay in all cases: relative viability (nuclei count vs DMSO), 5 days (fraction); higher = more cells survive
[1] = compound: O=C(c1cc(Cc2n[nH]c(=O)c3ccccc23)ccc1F)N1CCN(C(=O)C2CC2)CC1 [Olaparib] + CC1(C)CCC(c2ccc(Cl)cc2)=C(CN2CCN(c3ccc(C(=O)NS(=O)(=O)c4ccc(N[C@H](CCN5CCOCC5)CSc5ccccc5)c(S(=O)(=O)C(F)(F)F)c4)cc3)CC2)C1 [Navitoclax] (partner 0.5 µM)
Summary of the method: (§1)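 Lung cancer cell lines were seeded in 1536-well plates and dosed by pin tool the next day, with either a single drug or a fixed anchor-drug dose combined with five library-drug doses (not always all listed) spaced in √10 steps. Five days later, one step fixed the cells and stained their nuclei (final 0.05% Triton X-100, 1% formaldehyde, 1 ug/ml Hoechst), and nuclei were counted on 4× images. Relative viability is the nuclei count in treated wells divided by the count in vehicle wells, and each value is the median of duplicate plates.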

[2] = compound: C[C@@H](Oc1cc(-c2cnn(C3CCNCC3)c2)cnc1N)c1c(Cl)ccc(F)c1Cl [Crizotinib] + COc1cccc2cc(-c3nc([C@H]4CC[C@H](C(=O)O)CC4)n4ncnc(N)c34)[nH]c12 [OSI-027] (partner 0.5 µM)
Summary of the method: as §1

[3] = compound: O=C(c1cc(Cc2n[nH]c(=O)c3ccccc23)ccc1F)N1CCN(C(=O)C2CC2)CC1 [Olaparib] + CS(=O)(=O)CCNCc1ccc(-c2ccc3ncnc(Nc4ccc(OCc5cccc(F)c5)c(Cl)c4)c3c2)o1 [Lapatinib] (partner 2 µM)
Summary of the method: as §1

[4] = compound: O=C(c1cc(Cc2n[nH]c(=O)c3ccccc23)ccc1F)N1CCN(C(=O)C2CC2)CC1 [Olaparib] + Cc1nc(Nc2ncc(C(=O)Nc3c(C)cccc3Cl)s2)cc(N2CCN(CCO)CC2)n1 [Dasatinib] (partner 0.075 µM)
Summary of the method: as §1

Cell Line	relative viability ([1]; first compound 0.08 µM)	relative viability ([1]; first compound 0.253 µM)	relative viability ([1]; first compound 2.53 µM)	relative viability ([1]; first compound 8 µM)	relative viability ([2]; first compound 0.01 µM)	relative viability ([2]; first compound 0.03162 µM)	relative viability ([2]; first compound 0.1 µM)	relative viability ([2]; first compound 0.3162 µM)	relative viability ([3]; first compound 0.08 µM)	relative viability ([3]; first compound 0.253 µM)	relative viability ([3]; first compound 2.53 µM)	relative viability ([3]; first compound 8 µM)	relative viability ([4]; first compound 0.08 µM)	relative viability ([4]; first compound 0.253 µM)	relative viability ([4]; first compound 2.53 µM)	relative viability ([4]; first compound 8 µM)	relative viability ([2]; first compound 1 µM)
HOP-62	1.22	0.929	1.06	0.823	0.816	0.84	0.822	0.765	1.22	1.08	0.741	0.538	0.691	0.563	0.579	0.492	
IA-LM	0.825	0.784	0.707	0.502					1.13	0.926	0.746	0.602					
LC-2-ad	0.529	0.431	0.365	0.316	0.761	0.974	0.96	0.612	1.08	0.89	0.905	0.597	0.99	0.454	0.472	0.491	0.705
LCLC-97TM1	0.528	0.259	0.346	0.405	0.506	0.457	0.462	0.486	1.21	0.947	0.565	0.438	0.871	0.789	0.857	0.776	0.354
LCLC-103H					0.483	0.485	0.361	0.495					0.61	0.49	0.445	0.532	0.428
LK-2	0.887	0.696	0.876	0.951	0.196	0.186	0.166	0.189	0.985	0.935	0.92	0.941	0.27	0.329	0.271	0.225	0.183
LOU-NH91	0.757	0.642	0.725	0.618	0.713	0.724	0.798	0.712	0.83	0.77	0.733	0.735	0.6	0.473	0.525	0.589	0.706
LU99A	0.775	0.635	0.547	0.289	0.304	0.319	0.294	0.259	1.01	0.839	0.643	0.49	0.624	0.467	0.506	0.228	0.275
LXF-289	1.03	0.9	1.02	0.96	0.769	0.809	0.758	0.489	0.929	0.871	0.97	0.973	0.217	0.172	0.196	0.171	0.877
NCI-H23	0.953	0.684	0.603	0.387	0.631	0.58	0.66		1.32	0.791	0.679	0.485	0.922	0.802	0.61	0.488	0.541
